Results on one sequence are retold here after patent US9157087B2, “Inducible plant promoters and the use thereof” (University of Tennessee Research Foundation, priority 2012, dated 2015).

The test system of the data set is transgenic soybean hairy roots. Nature of the data set: Inducibility of ppor RFP reporter by chemical treatments (SA, ethephon, MeJA) in transgenic soybean hairy roots. The settings on record: 4 mg/ml ethephon (ethylene releasing chemical), 3 days; listed as Promoter 2.3. It counts as cell-based, soybean line TN02-275.

For “ATATAATTAAGT (listed as DNA, chemistry not fully specified) [Motif 2.3, 12 bp SCN-inducible promoter motif, tested as tetramerized repeat 5′ of a minimal CaMV 35S promoter]”, the “Inducibility by Effectors ERE” value is reported as “induced to a much lower degree”.
